The values that follow come from article PMC9056950, “Synthesis and biochemical evaluation of cephalosporin analogues equipped with chemical tethers” (RSC Advances, 2020).

Values after ≈ are worked out from the molar mass of the structure shown.

The test system of one assay is T1, S. aureus (NCTC 6571).
T1 construct: NCTC 6571
Also on record: species or system Staphylococcus aureus NCTC 6571; broth microdilution growth, OD600 after 16 h, MIC from GraphPad fit. The following applies: 16 h. As to the method: Stock solutions of each compound were prepared in 50% DMSO/water at ×100 the final concentration. In a 96-well plate, 2 μL of the test compounds were added to each well. Each plate included the positive control (750 μg mL^−1 chloramphenicol), the negative control (50% DMSO/water) and media only wells. To each test well was then added 198 μL of the required bacteria stock (OD 0.05). E. coli assays were carried out using LB broth, S. aureus were carried out using tryptic soy broth (TSB). Plates were incubated at 37 °C and the OD600 was measured (Epoch 2 Microplate Spectrophotometer, BioTek) every 30 min over a 17 h period. Tests were carried out in triplicate, the background absorbance was removed using reference wells, and the averages were determined. Dose curves were plotting using the OD600 after 16 h growth vs. compound concentration. MICs were defined as the minimum concentration of compound at which no significant growth was observed after 16 h incubation. MIC values were determined using GraphPad Prism (version 8.3.0). The activity of 1–12 was investigated with growth assays against Staphylococcus aureus (NCTC 6571). S. aureus is a virulent Gram-positive pathogen that can cause a wide range of infections in humans.[29,30] Each compound was tested at 400–6 μM concentrations, with lower concentrations tested as required.

Another assay addresses T2, PBP4 (Bacillus subtilis, UniProt P32959).
T2 sequence (P32959 1-451): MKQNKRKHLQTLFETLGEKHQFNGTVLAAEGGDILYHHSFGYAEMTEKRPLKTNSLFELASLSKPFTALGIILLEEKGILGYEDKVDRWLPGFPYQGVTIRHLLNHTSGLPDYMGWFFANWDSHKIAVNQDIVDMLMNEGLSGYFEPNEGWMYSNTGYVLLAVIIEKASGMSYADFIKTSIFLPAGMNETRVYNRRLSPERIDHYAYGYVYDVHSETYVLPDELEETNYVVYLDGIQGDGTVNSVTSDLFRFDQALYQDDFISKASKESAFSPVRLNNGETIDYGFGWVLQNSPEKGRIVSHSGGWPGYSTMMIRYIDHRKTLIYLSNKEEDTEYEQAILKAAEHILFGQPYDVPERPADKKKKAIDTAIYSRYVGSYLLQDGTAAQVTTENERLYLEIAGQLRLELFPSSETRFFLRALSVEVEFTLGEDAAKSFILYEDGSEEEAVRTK
In words: biochemical. On the set-up: gene pbpE; commercial protein (Generon); protein thermal shift assay, melting temperature change of PBP4. The following applies: read-out: Average DTm/°C. As to the method:
The thermal shift assay was carried out using the Protein Thermal Shift™ assay kit (Applied Biosystems). 3 μM of purified E. coli PBP3 was incubated with the β-lactam analogues at 300 μM concentration in a mixture containing the Protein Thermal Shift™ Dye. The samples were then heated in a StepOnePlus™ Real-Time PCR System from 25 to 95 °C at a rate of 1 °C min^−1. Tests were carried out in triplicate and the averages plotted as the negative first derivative vs. temperature. Reference wells, i.e. solutions consisting only of only PBP3 with dye, PBP3 only, and dye only, were used as controls. Melting temperature (Tm) values were determined with and without each compound, and the change in melting temperature (ΔTm) was obtained, Fig. 2. The thermal shift assay with PBP4 was carried out using the protocol described for PBP3, with the follow deriviatisation: 500 nM of purified Bacillus subtilis PBP4 was incubated with 50 μM of the β-lactam analogues. A thermal shift assay was used to investigate the binding of the cephalexin analogues to the therapeutic target, PBP, in vitro. This assay provides a fast and inexpensive method of detecting a ligand binding to a protein of interest. Briefly, the protein is gradually heated in the presence of a fluorescent dye that binds non-specifically to the hydrophobic surfaces. […]

As for `CC1(C)S[C@@H]2[C@H](NC(=O)Cc3ccccc3)C(=O)N2[C@H]1C(=O)O` [compound 11, penicillin], the “MIC (best-fit)” value against S. aureus (NCTC 6571) is 97.7 nM (≈ 0.0327 µg/mL). For the same compound, the ΔTm at 50 µM on PBP4 is -0.746 °C.
